Biological target: JAK1 (Homo sapiens (Human), UniProt P23458)
Assay: Analysis of JAK1 activity inhibition ability (ADP-Glo Kinase Assay)
Format: biochemical
Details: JAK1 enzyme, ADP-Glo luminescence, ATP 250 uM, IRS-itide substrate, 30° C. 40 minutes; read-out: IC50
Method in brief: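 JAK1 enzyme, IRS-itide substrate (40 ng/mL) and 250 uM ATP, both as prepared in kinase buffer (Tris-HCl pH 7.5, MgCl2, BSA, DTT), reacted with compound 40 min at 30 °C. ADP formed was detected by ADP-Glo luminescence; IC50 is the concentration giving 50% inhibition versus control.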

Sequence of JAK1 (P23458 whole entry): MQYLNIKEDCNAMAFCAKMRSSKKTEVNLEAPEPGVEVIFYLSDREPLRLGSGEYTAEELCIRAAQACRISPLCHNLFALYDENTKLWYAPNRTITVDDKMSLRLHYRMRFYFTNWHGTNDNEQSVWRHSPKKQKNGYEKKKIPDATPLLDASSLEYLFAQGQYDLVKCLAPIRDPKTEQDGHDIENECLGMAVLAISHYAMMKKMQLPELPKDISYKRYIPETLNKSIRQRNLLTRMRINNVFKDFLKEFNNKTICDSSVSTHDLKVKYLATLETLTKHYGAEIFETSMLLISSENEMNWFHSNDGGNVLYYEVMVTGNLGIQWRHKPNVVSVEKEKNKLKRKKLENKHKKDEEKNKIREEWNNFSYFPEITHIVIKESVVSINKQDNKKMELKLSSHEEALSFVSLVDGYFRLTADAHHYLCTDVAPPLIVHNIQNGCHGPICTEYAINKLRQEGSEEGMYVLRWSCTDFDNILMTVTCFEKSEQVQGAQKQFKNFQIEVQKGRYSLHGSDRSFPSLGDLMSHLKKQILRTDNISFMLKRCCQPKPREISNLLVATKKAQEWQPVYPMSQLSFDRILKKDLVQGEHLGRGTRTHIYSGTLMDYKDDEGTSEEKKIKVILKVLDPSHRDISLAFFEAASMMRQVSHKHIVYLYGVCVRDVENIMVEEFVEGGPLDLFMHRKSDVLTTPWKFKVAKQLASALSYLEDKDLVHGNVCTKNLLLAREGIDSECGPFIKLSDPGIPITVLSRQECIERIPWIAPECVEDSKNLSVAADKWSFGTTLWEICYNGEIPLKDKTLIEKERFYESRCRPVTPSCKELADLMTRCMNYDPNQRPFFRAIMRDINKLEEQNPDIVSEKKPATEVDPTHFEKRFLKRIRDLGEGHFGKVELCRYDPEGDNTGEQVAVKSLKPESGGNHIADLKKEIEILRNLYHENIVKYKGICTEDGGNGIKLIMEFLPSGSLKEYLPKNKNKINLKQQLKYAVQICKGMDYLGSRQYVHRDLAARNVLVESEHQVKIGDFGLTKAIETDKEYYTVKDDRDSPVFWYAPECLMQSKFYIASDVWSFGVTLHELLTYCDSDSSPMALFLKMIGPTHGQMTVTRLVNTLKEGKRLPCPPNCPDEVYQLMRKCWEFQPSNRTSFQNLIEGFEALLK

| SMILES | IC50 [nM] |
| --- | --- |
| O=C(Nc1cc(C2CC3CCC(C2)N3S(=O)(=O)c2ccc(F)c(F)c2)c2cc[nH]c2n1)C1CC1 (stereo not shown) [Example 649, N-(4-(8-((3,4-difluorophenyl)sulfonyl)-8-azabicyclo[3.2.1]octan-3-yl)-1H-pyrrolo[2,3-b]pyridin-6-yl)cyclopropanecarboxamide] | > 200 |
| Cn1cncc1S(=O)(=O)Nc1ccc(-c2nc(NC(=O)C3CC3)nc3[nH]ccc23)cc1 [Example 198, N-(4-(4-((1-methyl-1H-imidazole)-5-sulfonamido)phenyl)-7H-pyrrolo[2,3-d]pyrimidin-2-yl)cyclopropanecarboxamide] | > 200 |
| O=C(Nc1nc(-c2ccc(NCCCO)cc2)c2cc[nH]c2n1)C1CC1 [Example 476, N-(4-(4-((3-hydroxypropyl)amino)phenyl)-7H-pyrrolo[2,3-d]pyrimidin-2-yl)cyclopropanecarboxamide] | > 200 |
| CC1CN(S(=O)(=O)Nc2ccc(-c3nc(NC(=O)C4CC4)nc4[nH]ccc34)cc2)CC(C)O1 (stereo not shown) [Example 237, N-(4-(4-((2,6-dimethylmorpholine)-4-sulfonamido)phenyl)-7H-pyrrolo[2,3-d]pyrimidin-2-yl)cyclopropanecarboxamide] | > 200 |
| N#CCCC(=O)N1CCN(c2cc(NC(=O)C3CC3)nc3[nH]ccc23)CC1 [Example 684, N-(4-(4-(3-cyanopropanoyl)piperazin-1-yl)-1H-pyrrolo[2,3-b]pyridin-6-yl)cyclopropanecarboxamide] | > 200 |
| CCS(=O)(=O)Nc1ccc(-c2cc(NCC3CC3)nc3[nH]ccc23)cc1F [Example 713, N-(4-(6-((cyclopropylmethyl)amino)-1H-pyrrolo[2,3-b]pyridin-4-yl)-2-fluorophenyl)ethanesulfonamide] | > 200 |
| CCCS(=O)(=O)N[C@H]1CCN(c2nc(NC(=O)C3CC3)nc3[nH]ccc23)C1 [Example 670, (S)—N-(4-(3-(propylsulfonamido)pyrrolidin-1-yl)-7H-pyrrolo[2,3-d]pyrimidin-2-yl)cyclopropanecarboxamide] | > 200 |
| CCS(=O)(=O)Nc1ccc(-c2cc(NC(=O)C3CC3)nc3[nH]ccc23)cc1C#N [Example 59, N-(4-(3-cyano-4-(ethylsulfonamido)phenyl)-1H-pyrrolo[2,3-b]pyridin-6-yl)cyclopropanecarboxamide] | > 200 |
| O=C(Nc1nc(-c2ccc(NS(=O)(=O)c3ccc(Cl)cc3)cc2)c2cc[nH]c2n1)C1CC1 [Example 187, N-(4-(4-((4-chlorophenyl)sulfonamido)phenyl)-7H-pyrrolo[2,3-d]pyrimidin-2-yl)cyclopropanecarboxamide] | 20 to 200 |
| CC1CN(C(=O)c2ccc(Cl)c(Cl)c2)CC=C1c1cc(NC(=O)C2CC2)nc2[nH]ccc12 (stereo not shown) [Example 353, N-(4-(1-(3,4-dichlorobenzoyl)-3-methyl-1,2,3,6-tetrahydropyridin-4-yl)-1H-pyrrolo[2,3-b]pyridin-6-yl)cyclopropanecarboxamide] | 20 to 200 |
| O=C(Nc1cc(C2=CCN(C(=O)CC(F)(F)F)CC2)c2cc[nH]c2n1)C1CC1 [Example 253, N-(4-(1-(3,3,3-trifluoropropanoyl)-1,2,3,6-tetrahydropyridin-4-yl)-1H-pyrrolo[2,3-b]pyridin-6-yl)cyclopropanecarboxamide] | 20 to 200 |
| O=C(Nc1cc(N2CC3CCC(C2)N3C(=O)NCC(F)(F)F)c2cc[nH]c2n1)C1CC1 [Example 691, 3-(6-(cyclopropanecarboxamido)-1H-pyrrolo[2,3-b]pyridin-4-yl)-N-(2,2,2-trifluoroethyl)-3,8-diazabicyclo[3.2.1]octane-8-carboxamide] | < 20 |

Next, values leading:

| IC50 [nM] | SMILES |
| --- | --- |
| 20 to 200 | N#CCCCS(=O)(=O)Nc1ccc(-c2nc(NC(=O)C3CC3)nc3[nH]ccc23)cc1 [Example 186, N-(4-(4-((3-cyanopropyl)sulfonamido)phenyl)-7H-pyrrolo[2,3-d]pyrimidin-2-yl)cyclopropanecarboxamide] |
| 20 to 200 | CCCNC(=S)Nc1ccc(-c2nc(NC(=O)C3CC3)nc3[nH]ccc23)cc1 [Example 467, N-(4-(4-(3-propylthioureido)phenyl)-7H-pyrrolo[2,3-d]pyrimidin-2-yl)cyclopropanecarboxamide] |
| 20 to 200 | O=C(Nc1cc(C2=CCN(C(=O)C3CC3)CC2)c2cc[nH]c2n1)C1CC1 [Example 264, N-(4-(1-(cyclopropanecarbonyl)-1,2,3,6-tetrahydropyridin-4-yl)-1H-pyrrolo[2,3-b]pyridin-6-yl)cyclopropanecarboxamide] |
| < 20 | O=C(Nc1nc(-c2ccc(NS(=O)(=O)CCC(F)(F)F)cc2)c2cc[nH]c2n1)C1CC1 [Example 194, N-(4-(4-((3,3,3-trifluoropropyl)sulfonamido)phenyl)-7H-pyrrolo[2,3-d]pyrimidin-2-yl)cyclopropanecarboxamide] |
| < 20 | N#CCCCS(=O)(=O)Nc1ccc(-c2cc(NC(=O)C3CC3)nc3[nH]ccc23)cc1 [Example 52, N-(4-(4-((3-cyanopropyl)sulfonamido)phenyl)-1H-pyrrolo[2,3-b]pyridin-6-yl)cyclopropanecarboxamide] |
| < 20 | O=C(Nc1cc(-c2ccc(NS(=O)(=O)CC3CC3)cc2)c2cc[nH]c2n1)C1CC1 [Example 46, N-(4-(4-((cyclopropylmethyl)sulfonamido)phenyl)-1H-pyrrolo[2,3-b]pyridin-6-yl)cyclopropanecarboxamide] |
| < 20 | CC(C)(C)C1C=C(c2cc(NC(=O)C3CC3)nc3[nH]ccc23)CCN1C(=O)CC#N (stereo not shown) [Example 412, N-(4-(6-(tert-butyl)-1-(2-cyanoacetyl)-1,2,3,6-tetrahydropyridin-4-yl)-1H-pyrrolo[2,3-b]pyridin-6-yl)cyclopropanecarboxamide] |
| 20 to 200 | CC1CN(C(=O)c2ccc3cc[nH]c3c2)CC=C1c1cc(NC(=O)C2CC2)nc2[nH]ccc12 (stereo not shown) [Example 327, N-(4-(1-(1H-indole-6-carbonyl)-3-methyl-1,2,3,6-tetrahydropyridin-4-yl)-1H-pyrrolo[2,3-b]pyridin-6-yl)cyclopropanecarboxamide] |
| < 20 | O=C(Nc1cc(-c2ccc(NS(=O)(=O)N3CCS(=O)(=O)CC3)cc2)c2cc[nH]c2n1)C1CC1 [Example 229, N-(4-(4-((1,1-dioxidothiomorpholine)-4-sulfonamido)phenyl)-1H-pyrrolo[2,3-b]pyridin-6-yl)cyclopropanecarboxamide] |
| 20 to 200 | CCN(CC)S(=O)(=O)Nc1ccc(-c2cc(NC(=O)C3CC3)nc3[nH]ccc23)cc1 [Example 216, N-(4-(4-((N,N-diethylsulfamoyl)amino)phenyl)-1H-pyrrolo[2,3-b]pyridin-6-yl)cyclopropanecarboxamide] |
| 20 to 200 | CCNC(=S)N1CC=C(c2cc(NC(=O)C3CC3)nc3[nH]ccc23)CC1 [Example 468, N-(4-(1-(ethylcarbamothioyl)-1,2,3,6-tetrahydropyridin-4-yl)-1H-pyrrolo[2,3-b]pyridin-6-yl)cyclopropanecarboxamide] |
| < 20 | O=C(Nc1cc(-c2ccc(CC(=O)N3CCC(F)(F)C3)cc2)c2cc[nH]c2n1)C1CC1 [Example 569, N-(4-(4-(2-(3,3-difluoropyrrolidin-1-yl)-2-oxoethyl)phenyl)-1H-pyrrolo[2,3-b]pyridin-6-yl)cyclopropanecarboxamide] |
| 20 to 200 | CCS(=O)(=O)Nc1ccc(-c2cc(NC(=S)C3CC3)nc3[nH]ccc23)cc1 [Example 715, N-(4-(4-(ethylsulfonamido)phenyl)-1H-pyrrolo[2,3-b]pyridin-6-yl)cyclopropanecarbothioamide] |

Reference: US11524968B2, “Heterocyclic compound as a protein kinase inhibitor” (HK inno.N Corporation, priority 2017, dated 2022)
